Entries after “also recorded” stand apart in the source; their conditions may differ.
Columns and labels:
[1] = target: T1, recombinant human 11β-HSD1 (Homo sapiens, UniProt P28845); assay: 11β-HSD1 enzyme inhibition assay (cortisone to cortisol, HPLC-MS/MS); assay type: biochemical; details: cortisone 50 μM, NADPH 1 mM, 37 °C, 30 min, read-out: IC50 (inhibitory activities against 11β-HSD1)
T1 construct: The gene encoding 11β-HSD1 (Genebank: NC_018912.2) was cloned into the pET-28a vector (Novagen); hexa-histidine (C, cleaved yes); made in house; host or cells: E. coli BL21(DE3)
Description: To explore the 11β-HSD1 inhibitory activities of compounds 1–8 in vitro, recombinant human 11β-HSD1 protein was incubated with various concentrations of compounds and the enzymatic activity (cortisone to cortisol) was tested using HPLC-MS/MS (Fig. 3).
(§1) The gene encoding 11β-HSD1 (Genebank: NC_018912.2) was cloned into the pET-28a vector (Novagen). After the recombinant plasmids were verified by sequencing, the plasmid was transformed into E. coli BL21(DE3) (Invitrogen) which were grown in LB medium at 37 °C to an OD600 (0.8–1.0) and induced by 0.4 mM isopropyl -D-thiogalactopyranoside (IPTG) at 20 °C for 16 hours. Bacterial cells were lysed by ultrasonification on ice in a buffer containing 20 mM Tris, pH 8.5, 200 mM NaCl, 5 mM mercaptoethanol, 0.1% TritonX-100, and 5% glycerol. Soluble C-terminally hexa-histidine tagged 11β-HSD1 was bound to Ni-agarose affinity resin (Qiagen), washed with a buffer containing 20 mM Tris, pH 8.5, 200 mM NaCl, and 10 mM imidazole, and eluted with a buffer containing 20 mM Tris, pH 8.8, 250 mM NaCl, and 150 mM imidazole. Thrombin (Roche) was added at one unit per 4 mg protein to the elute, which was then dialyzed against 20 mM Tris pH 8.5 and 100 mM NaCl at room temperature for overnight digestion. After thrombin digestion to remove the hexahistidine tag, contaminant proteins were removed by loading the elute onto a second cobalt affinity column equilibrated in the dialyzing buffer and collecting the flow-through. The protein was further purified with anion exchange chromatography, using a linear gradient of 10 mM to 1 M NaCl concentration and size exclusion chromatography at 20 mM Tris pH 8.5 and 200 mM NaCl[22][23].
The inhibitory effects of 1–8 on 11β-HSD1 were measured using recombinant human 11β-HSD1 protein through HPLC-MS/MS method. Briefly, 2.5 μL recombinant 11β-HSD1 protein (0.512 mg protein/ml) was added to 100 μL buffer (100 mM KCl, 20 mM NaCl, 20 mM Hepes, pH 7.5) containing NADPH (1 mM) and cortisone (50 μM) with or without various concentrations of compounds. The reactants were incubated at 37 °C for 30 min. After extraction with dichloromethane, evaporation and resolvation with 200 μL methanol, cortisone and cortisol were measured by HPLC-MS/MS and multi-reactions monitoring (MRM) technology. Detection was performed using a Shimadzu LC-20AD HPLC system equipped with an SHIMADZU VP-ODS 150 L × 4.6 mm column connected to a API 4000 LC/MS/MS system. Samples were analyzed after injection and equilibrated with 45% solution A (0.1% formic acid in water) and 55% solution B (Methanol) under isocratic elution with the flow rate of 0.8 mL/min. The HPLC eluent were tested by HPLC-MS/MS using collision energy 33 eV (cortisol) and 30 eV […] in positive ion mode. Analyst quantitation optimization wizard was used to optimize the collision energies and other electric lens settings for MRM detections. The inhibition rates were calculated using the concentration ratios of cortisone and cortisol in tubes with or without various compounds.

[2] = target: T1, recombinant human 11β-HSD1; assay: Binding affinity assay using microscale thermophoresis (MST); details: labelled 11β-HSD1 50 nM, 22 °C, means ± SD for three experiments; for Kd: read-out: Kd (dissociation constant with 11β-HSD1)
Text: Measuring the thermophoretic behaviour of a protein in the presence of differing ligand concentrations by MST allows quantitative analysis of molecular interactions in solution. The MST technique has previously been used to investigate protein-protein, small organic molecule-protein and antibody-protein interactions.
as §1
The ability of the purified 11β-HSD1 to bind with potential ligands was analyzed using MST. The protein was labeled with the Monolith NT™ Protein Labeling Kit RED (Cat#L001) according to the supplied labeling protocol. Labelled 11β-HSD1 was kept constant at 50 nM, while all samples tested were diluted in a 20 mM HEPES (pH 7.5) and 0.05 (v/v)% Tween-20. Compounds were diluted in 12 dilution steps covering the range of appropriate concentrations. After 10 min incubation at room temperature, samples were loaded into Monolith^TM standard-treated capillaries and the thermophoresis was measured at 22 °C after 30 min incubation on a Monolith NT.115 instrument (NanoTemper Technologies, München, Germany). Laser power was set to 40% using 30 seconds on-time and the LED power was set to 100%. The dissociation constrant Kd values were fitted by using the NTAnalysis software (NanoTemper Technologies, München, Germany).

3T3-L1 preadipocytes = assay: Lipid accumulation in differentiation-induced 3T3-L1 preadipocytes (Oil Red O staining); assay type: cell-based; details: 3T3-L1 preadipocytes induced to differentiate, 50 μM compound, 6 days
Description: It was reported that 11β-HSD1 is highly expressed in normal liver[18] and stimulates pre-adipocyte differentiation. As a result, many 11β-HSD1 inhibitors were investigated to prevent adipogenesis. To further examine the 11β-HSD1 inhibitory effects of compound 3, we examined the anti-adipogenic effect of compound 3 during the differentiation of 3T3-L1 cells.
(§2) 3T3-L1 preadipocytes were purchased from Shanghai Institute of Cell Biology, Chinese Academy of Sciences. Both of them were cultured in DMEM medium (Gibco, USA) containing 10% FBS, penicillin (100 U/mL), streptomycin […] in 5% CO2 at 37 °C. 3T3-L1 preadipocytes were induced to differentiate as previously described. In short, differentiation was induced by adding 0.5 mmol/L 3-isobutyl-1-methyxanthine (Sigma), 10 μg/mL insulin (Sigma), and […] dexamethasone (Sigma) to the medium. After 48 h incubation (d2), the medium was replaced with DMEM containing 10 μg/mL insulin and 50 μM compound 3. On d4, the medium was replaced with DMEM containing compound 3, and then changed back to the same medium every on d6.
Preadipocytes 3T3-L1 were induced to differentiate with or without compounds 3 for 6 days, and then washed twice with PBS, fixed in 3.7% formaldehyde for 1 h and stained with Oil Red O for another 1 h at room temperature. Cells were then washed several times with PBS, and photographed by a light microscope (Olympus, Japan).

[3] = test system: 11β-HSD1 expression in 3T3-L1 cells; assay: 11β-HSD1 expression in 3T3-L1 cells (western blot); assay type: cell-based; details: differentiation-induced 3T3-L1 preadipocytes, β-Actin loading control
Description: Figure 5 Effects of compound 3 on lipid accumulation and 11β-HSD1 expression in 3T3-L1 cells. Preadipocytes were induced to differentiate in the presence or absence of compound 3, which was then stained with Oil Red O and photographed (40×). 11β-HSD1 expressions were determined by western blot. β-Actin was used as a loading control.
as §2
Cells were treated and then lysed in a radio immune-precipitation assay buffer. Protein concentrations were determined using a BCA protein assay kit (Byontime, Beijing, China) and equalized before loading. […]

T1 sequence (P28845 whole entry): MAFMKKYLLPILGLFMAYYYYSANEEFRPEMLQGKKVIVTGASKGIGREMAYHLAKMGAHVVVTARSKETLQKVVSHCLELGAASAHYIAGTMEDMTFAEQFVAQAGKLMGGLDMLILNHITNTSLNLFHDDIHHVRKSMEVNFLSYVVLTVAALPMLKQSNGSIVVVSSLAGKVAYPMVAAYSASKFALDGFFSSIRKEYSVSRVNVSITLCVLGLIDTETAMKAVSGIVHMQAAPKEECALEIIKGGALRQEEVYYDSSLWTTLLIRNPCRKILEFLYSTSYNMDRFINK

Row | SMILES | IC50 [1] [µM] | Kd [2] [µM] | Kd (dissociation constant with 11β-HSD1) [2] | lipid droplet accumulation (3T3-L1 preadipocytes) | 11β-HSD1 expression [3]
1 | CN1C(=O)c2ccccc2NC(=O)C12OC2c1cccc(O)c1 (single isomer, unassigned; (+)) [Compound 5, (+)-cyclopenol] | 45.5 ± 7.82 | 421 ± 12.1 |  |  | 
2 | COc1cc(Cc2c(O)c(C)cc(C(C)=O)c2O)c(OC)cc1O [Compound 2, Penicophenone B] | > 200 |  | either no binding or no statistically significant binding was detected and n.b. |  | 
3 | CC(=O)c1cc(C)c2c(c1O)C[C@H](C)[C@@]1(C[C@@H](O)C[C@@H](C)O1)O2 [Compound 1, Penicophenone A] | > 200 |  | either no binding or no statistically significant binding was detected; also recorded: n.b.b |  | 
4 | CN1C(=O)c2ccccc2NC(=O)/C1=C/c1ccccc1 [Compound 4, 3-benzylidene-3,4-dihydro-4-methyl-lH-l,4-benzodiazepine-2,5-dione] | > 200 |  | either no binding or no statistically significant binding was detected and n.b. |  | 
5 | CC(C)=CCC[C@]1(C)[C@@H](O)CC[C@@]2(C)[C@H]1CC[C@H]1Cc3c([nH]c4ccccc34)[C@@]12C [Compound 7, emindole SB] | > 200 |  | either no binding or no statistically significant binding was detected and n.b. |  | 
6 | CN1C(=O)c2ccccc2NC(=O)[C@@H](Cc2ccccc2)N(C)C(=O)c2ccccc2NC(=O)[C@H]1Cc1ccccc1 [Compound 3, Penicopeptide A] | 9.07 ± 0.61 | 82.1 ± 5.01 |  | decreased the lipid droplet accumulation | inhibition of 11β-HSD1 expression
7 | CN1C(=O)c2ccccc2NC(=O)C12OC2c1ccccc1 (centres unmarked) [Compound 6, cyclopenin] |  | 513 ± 10.6 |  |  | 
8 | CC(=O)c1cc(C)c(O)c(C[C@]23Cc4c(O)c(C(C)=O)cc(C)c4O[C@@]2(O)[C@@H](C)OC3=O)c1O [Compound 8, penilactones A] | > 200 |  | either no binding or no statistically significant binding was detected and n.b. |  | 
